Experimental data from PMC12396409, “Screening and hit evaluation of a microbial metabolite library against the pathogenic Plasmodium falciparum and Toxoplasma gondii parasites” (International Journal for Parasitology: Drugs and Drug …, 2025).
Like-named read-outs stand apart in the source and are kept apart here.

Columns and labels:
[1] = test system: T. gondii RH strain (RH-Tub-eYFP) tachyzoites; assay: microbe, parasite or virus in culture; format: cell-based, Toxoplasma gondii; details: 72 h; for percent parasite growth at 2 µg/mL: Toxoplasma gondii
[2] = test system: P. falciparum 3D7 parasites; assay: P. falciparum growth inhibition assay, 2-cycle (120 h treatment), delayed-death screen and dose-response; format: cell-based, Plasmodium falciparum; details: for activity at 2 µg/mL: Plasmodium falciparum
[3] = test system: P. falciparum 3D7 parasites; assay: P. falciparum growth inhibition assay, 1-cycle (72 h treatment), SYBR DNA staining (library screen at 2 μg/mL and dose-response); format: cell-based, Plasmodium falciparum; details: for activity at 2 µg/mL: Plasmodium falciparum
[4] = library screen at 2 μg/mL, % growth, replicate 1, read-out: Tg_72h_%Growth_Rep1
[5] = library screen at 2 μg/mL, % growth, replicate 2, read-out: Tg_72h_%Growth_Rep2
[6] = 3D7, 120 h, library screen at 2 μg/mL, 120 h, % growth, replicate 1, read-out: Pf_120h_%Growth_Rep1
[7] = 3D7, 120 h, library screen at 2 μg/mL, 120 h, % growth, replicate 2, read-out: Pf_120h_%Growth_Rep2
[8] = 3D7, 72 h, library screen at 2 μg/mL, 72 h, % growth, replicate 1, read-out: Pf_72h_%Growth_Rep1
[9] = 3D7, 72 h, library screen at 2 μg/mL, 72 h, % growth, replicate 2, read-out: Pf_72h_%Growth_Rep2
[10] = T. gondii, screen at 2 μg/mL, replicate 1, read-out: Tg_72h_%Growth_Rep1
[11] = T. gondii, screen at 2 μg/mL, replicate 2, read-out: Tg_72h_%Growth_Rep2
[12] = 3D7, P. falciparum, 120 h, screen at 2 μg/mL, replicate 1, read-out: Pf_120h_%Growth_Rep1
[13] = 3D7, P. falciparum, 120 h, screen at 2 μg/mL, replicate 2, read-out: Pf_120h_%Growth_Rep2
[14] = 3D7, P. falciparum, 72 h, screen at 2 μg/mL, replicate 1, read-out: Pf_72h_%Growth_Rep1
[15] = 3D7, P. falciparum, 72 h, screen at 2 μg/mL, replicate 2, read-out: Pf_72h_%Growth_Rep2
[16] = T. gondii, screen at 2 μg/mL, replicate 1
[17] = T. gondii, screen at 2 μg/mL, replicate 2
[18] = P. falciparum, 120 h, screen at 2 μg/mL, replicate 1
[19] = P. falciparum, 120 h, screen at 2 μg/mL, replicate 2
[20] = P. falciparum, 72 h, screen at 2 μg/mL, replicate 1
[21] = P. falciparum, 72 h, screen at 2 μg/mL, replicate 2

How did the Tg_72h_%Growth_Rep1 ([1]; library screen at 2 μg/mL, % growth, replicate 1) turn out when `Cc1c2c(c(O)c3c(O)cccc13)C(=O)O[C@@H]2[C@@H]1[C@H](O)C(=O)C(C(N)=O)=C(O)[C@H]1N(C)C` [Apooxytetracycline, alpha-] was run?
Its Tg_72h_%Growth_Rep1 is 81.07%.

What about the Tg_72h_%Growth_Rep2 ([1]; library screen at 2 μg/mL, % growth, replicate 2) of the same compound?
The Tg_72h_%Growth_Rep2 was 111.56%.

What about the Pf_120h_%Growth_Rep1 ([2]; library screen at 2 μg/mL, 120 h, % growth, replicate 1) of the same compound?
Its Pf_120h_%Growth_Rep1 is 91.28%.

What about the Pf_120h_%Growth_Rep2 ([2]; library screen at 2 μg/mL, 120 h, % growth, replicate 2) of the same compound?
The Pf_120h_%Growth_Rep2 was 90.91%.

And the Pf_72h_%Growth_Rep1 ([3]; library screen at 2 μg/mL, 72 h, % growth, replicate 1)?
The Pf_72h_%Growth_Rep1 was 86.78%.

And the Pf_72h_%Growth_Rep2 ([3]; library screen at 2 μg/mL, 72 h, % growth, replicate 2)?
Its Pf_72h_%Growth_Rep2 is 89.73%.

`O=c1cccc2n1C[C@H]1C[C@@H]2CN2CCCC[C@H]12` [Anagyrine] was tested. Which percent parasite growth at 2 µg/mL [1, 4] did it give?
Its percent parasite growth at 2 µg/mL is 136%.

And the percent parasite growth at 2 µg/mL [1, 5]?
The percent parasite growth at 2 µg/mL was 82.1%.

And the activity at 2 µg/mL [2, 6]?
The activity at 2 µg/mL was 106%.

And the activity at 2 µg/mL [2, 7]?
The activity at 2 µg/mL was 103%.

What about the activity at 2 µg/mL [3, 8] of the same compound?
The activity at 2 µg/mL was 88.8%.

What about the activity at 2 µg/mL [3, 9] of the same compound?
Its activity at 2 µg/mL is 124%.

Which Tg_72h_%Growth_Rep1 ([1]; T. gondii, parasite screen at 2 μg/mL, % growth, replicate 1) does the source give for `CN(C)[C@@H]1C(=O)C(C(=O)NCN2CCN(CCO)CC2)=C(O)[C@@]2(O)C(=O)C3=C(O)c4c(O)cccc4[C@@](C)(O)[C@H]3C[C@@H]12` [BIA-P1473] here?
The Tg_72h_%Growth_Rep1 was 118.64%.

What about the Tg_72h_%Growth_Rep2 ([1]; T. gondii, parasite screen at 2 μg/mL, % growth, replicate 2) of the same compound?
Its Tg_72h_%Growth_Rep2 is 93.61%.

What about the Pf_120h_%Growth_Rep1 ([2]; P. falciparum 3D7, 120 h, parasite screen at 2 μg/mL, % growth, replicate 1) of the same compound?
The Pf_120h_%Growth_Rep1 was 88.47%.

What about the Pf_120h_%Growth_Rep2 ([2]; P. falciparum 3D7, 120 h, parasite screen at 2 μg/mL, % growth, replicate 2) of the same compound?
The Pf_120h_%Growth_Rep2 was 132.29%.

What about the Pf_72h_%Growth_Rep1 ([3]; P. falciparum 3D7, 72 h, parasite screen at 2 μg/mL, % growth, replicate 1) of the same compound?
Its Pf_72h_%Growth_Rep1 is 83.77%.

What about the Pf_72h_%Growth_Rep2 ([3]; P. falciparum 3D7, 72 h, parasite screen at 2 μg/mL, % growth, replicate 2) of the same compound?
The Pf_72h_%Growth_Rep2 was 98.47%.

`O=C1NC(c2c[nH]c3ccc(O)cc23)=C/C1=C1\C(=O)Nc2ccccc21` [Violacein] was tested. Which percent parasite growth at 2 µg/mL [1, 10] did it give?
The percent parasite growth at 2 µg/mL was 85.9%.

And the percent parasite growth at 2 µg/mL [1, 11]?
Its percent parasite growth at 2 µg/mL is 106%.

What about the activity at 2 µg/mL [2, 12] of the same compound?
Its activity at 2 µg/mL is 170%.

And the activity at 2 µg/mL [2, 13]?
The activity at 2 µg/mL was 91.7%.

And the activity at 2 µg/mL [3, 14]?
Its activity at 2 µg/mL is 83.3%.

What about the activity at 2 µg/mL [3, 15] of the same compound?
The activity at 2 µg/mL was 90.2%.

With `C[C@@](O)(/C=C/[C@H]1CC=CC(=O)O1)[C@@H](C[C@@H](O)\C=C/C=C\C=C\CO)OP(=O)(O)O` [Fostriecin] as the compound, how does the percent parasite growth at 2 µg/mL [1, 4] read?
Its percent parasite growth at 2 µg/mL is 113%.

What about the percent parasite growth at 2 µg/mL [1, 5] of the same compound?
The percent parasite growth at 2 µg/mL was 102%.

What about the activity at 2 µg/mL [2, 6] of the same compound?
The activity at 2 µg/mL was 36.9%.

And the activity at 2 µg/mL [2, 7]?
The activity at 2 µg/mL was 56%.

And the activity at 2 µg/mL [3, 8]?
The activity at 2 µg/mL was 29.1%.

And the activity at 2 µg/mL [3, 9]?
Its activity at 2 µg/mL is 38.8%.

Which percent parasite growth at 2 µg/mL [1, 10] does the source give for `C[C@@H]1C[C@H](C)C[C@H](C)[C@@H](O)CC(=O)O[C@H]([C@@H]2CCC[C@H]2C(=O)O)C/C=C/C=C(/C#N)[C@H](O)[C@@H](C)C1` [Borrelidin] here?
The percent parasite growth at 2 µg/mL was 0.76%.

What about the percent parasite growth at 2 µg/mL [1, 11] of the same compound?
The percent parasite growth at 2 µg/mL was 1.62%.

And the activity at 2 µg/mL [2, 12]?
Its activity at 2 µg/mL is 4.36%.

And the activity at 2 µg/mL [2, 13]?
Its activity at 2 µg/mL is 5.57%.

What about the activity at 2 µg/mL [3, 14] of the same compound?
The activity at 2 µg/mL was 2.87%.

And the activity at 2 µg/mL [3, 15]?
The activity at 2 µg/mL was -1.49%.

How did the Tg_72h_%Growth_Rep1 [1, 16] turn out when `C[C@@H]1CCC[C@H](O)CCC/C=C/c2cc(O)cc(O)c2C(=O)O1` [Zearalenol, beta-] was run?
The Tg_72h_%Growth_Rep1 was 134.26%.

And the Tg_72h_%Growth_Rep2 [1, 17]?
Its Tg_72h_%Growth_Rep2 is 80.69%.

And the Pf_120h_%Growth_Rep1 [2, 18]?
The Pf_120h_%Growth_Rep1 was 110.27%.

And the Pf_120h_%Growth_Rep2 [2, 19]?
Its Pf_120h_%Growth_Rep2 is 105.90%.

What about the Pf_72h_%Growth_Rep1 [3, 20] of the same compound?
The Pf_72h_%Growth_Rep1 was 92.46%.

And the Pf_72h_%Growth_Rep2 [3, 21]?
Its Pf_72h_%Growth_Rep2 is 126.46%.

`CC(C)[C@@H]1NC(=O)[C@H](Cc2ccc(O)cc2)NC1=O` [Cyclo(L-Tyr-L-Val)] was tested. Which Tg_72h_%Growth_Rep1 [1, 16] did it give?
The Tg_72h_%Growth_Rep1 was 164.57%.

What about the Tg_72h_%Growth_Rep2 [1, 17] of the same compound?
The Tg_72h_%Growth_Rep2 was 103.47%.

What about the Pf_120h_%Growth_Rep1 [2, 18] of the same compound?
The Pf_120h_%Growth_Rep1 was 98.73%.

And the Pf_120h_%Growth_Rep2 [2, 19]?
Its Pf_120h_%Growth_Rep2 is 89.51%.

What about the Pf_72h_%Growth_Rep1 [3, 20] of the same compound?
Its Pf_72h_%Growth_Rep1 is 84.64%.

What about the Pf_72h_%Growth_Rep2 [3, 21] of the same compound?
Its Pf_72h_%Growth_Rep2 is 82.94%.
